Test system: trained expert panelists
Experiment: Sensory panel scaling of taste attributes on 0-15 scales (formulation study ballot)
Type: in vivo, human
Conditions: 0-15 scale; for Bitterness Intensity @ 2 Min (Bitter2) / Numbing/Tingling Sensation @ 2 Min (Numb/Ting2) / Sweetness Intensity @ 2 Min (Sweet2): at 2 minutes; for Bitterness Intensity @ 2 Min (Bitter2) / Numbing/Tingling Sensation @ 2 Min (Numb/Ting2) / Sweetness Intensity @ 2 Min (Sweet2) / Astringency Intensity (Astring) / Bitterness Intensity (IB) / Mouthfeel (Mfeel) / Numbing/Tingling Sensation (Numb/Ting) / Soapiness (Soap) / Sweetness Intensity Initial (Sweetness) / Sweetness Onset/Appearance Time (Onset): defined calibration rating, Sucrose Reference 10.0% sucrose, REB A Reference 500 PPM, both in 0.1% citric acid
Text: Tongue numbing can also manifest itself as “tongue tingling”. These non-sugar-like characteristics appear inter-related in the sense that formulation as well as temperature changes affect the perception of several of them. Another taste characteristic of steviol glycosides, particularly those with relatively low levels of REB A, is soapiness, a characteristic that results from the surfactant portion of the molecule. To quantify all of these sensory effects by existing methods would require an expert sensory panel and at least 4 different sensory tests (i.e., C/R Function Determination, Flavor Profile Analysis, Temporal Profile Analysis and Adaptation Profile Analysis). However, to address a need for rapid screening of HP sweetener formulations, Prakash et al., described a scaling technique to quantify all of these sensory percepts in a single test (reference shown below under the table). An improvement of this methodology is described below.
Prior to the evaluation of test samples, all panelists must first calibrate themselves on Sucrose and Reference Samples (e.g., REB A) to ensure that they are able to appropriately scale taste attributes of interest. These Reference Samples are to be available in ample quantities for all experimental sessions. The Sucrose Reference is 10.0% sucrose acidified with 0.1% citric acid. For illustration purposes, an example of a Reference Sample can be a REB A Reference Sample that has 500 PPM REB A in the same system for general formula optimization studies.
Take a ca. 15 mL sample of the Sucrose Reference into the mouth swishing it around vigorously and note all attributes of the sensory experience. After ca. 10 sec, expectorate the sample and immediately rinse vigorously with ca. 15 mL of water, expectorating the rinse water. Over the next 2 minutes, while minimizing tongue movement in the mouth, pay attention to any rebound or intensification in perceived sweetness, bitterness, or numbing/tingling sensation. The intensity of the attribute perceived at 2 minutes is an estimate of its lingering tendency. Upon completion of calibration with the Sucrose Reference, calibration with the REB A Reference is carried out in the same way. The attribute ratings for the Sucrose and REB A References, all on 0-15 scales, are defined as follows: […]
After completion of reference sample calibrations, as well as in follow up of all sample tests, rinse the mouth vigorously with ca. 15 mL portions of the Sucrose Reference solution and two ca. 15 mL portions of water in effort to get the sensory system back to baseline. […]

SMILES	Bitterness Intensity @ 2 Min (Bitter2)	Numbing/Tingling Sensation @ 2 Min (Numb/Ting2)	Sweetness Intensity @ 2 Min (Sweet2)	Astringency Intensity (Astring)	Bitterness Intensity (IB)	Mouthfeel (Mfeel)	Numbing/Tingling Sensation (Numb/Ting)	Soapiness (Soap)	Sweetness Intensity Initial (Sweetness)	Sweetness Onset/Appearance Time (Onset)	scores on all lingering attributes (Example 9, REBA100 500 mg/L in 0.1% citric acid, two panelists)
C=C1C[C@@]23CC[C@H]4[C@@](C)(CCC[C@@]4(C)C(=O)O[C@@H]4O[C@H](CO)[C@@H](O)[C@H](O)[C@H]4O)[C@@H]2CC[C@]1(O[C@@H]1O[C@H](CO)[C@@H](O)[C@H](O[C@@H]2O[C@H](CO)[C@@H](O)[C@H](O)[C@H]2O)[C@H]1O[C@@H]1O[C@H](CO)[C@@H](O)[C@H](O)[C@H]1O)C3 [REB A100, rebaudioside A]	2	2	3	0	3	0	0	1	10	3	–
OC[C@H]1O[C@@](CO)(O[C@H]2O[C@H](CO)[C@@H](O)[C@H](O)[C@H]2O)[C@@H](O)[C@@H]1O [Sucrose, sucrose]	0	0	0	0	0	10	0	0	10	0	0

From patent publication US20150086695A1, “SWEETENER COMPOSITION, SWEETENER PRODUCTS, AND METHODS OF SWEETENING” (Almendra Americas, LLC, priority 2013, published 2015)
